Results from paper PMC8787434, “Discovery of Novel GR Ligands toward Druggable GR Antagonist Conformations Identified by MD Simulations and Markov State Model Analysis” (Advanced Science, 2021).

Experiments:
[1] = molecular target: T1, GR (LanthaScreen TR-FRET GR Competitive Binding Assay) (Homo sapiens, UniProt P04150); experiment: LanthaScreen TR-FRET competitive binding assay
T1 construct: gene NR3C1
T1 sequence (P04150 521-777 limits assumed): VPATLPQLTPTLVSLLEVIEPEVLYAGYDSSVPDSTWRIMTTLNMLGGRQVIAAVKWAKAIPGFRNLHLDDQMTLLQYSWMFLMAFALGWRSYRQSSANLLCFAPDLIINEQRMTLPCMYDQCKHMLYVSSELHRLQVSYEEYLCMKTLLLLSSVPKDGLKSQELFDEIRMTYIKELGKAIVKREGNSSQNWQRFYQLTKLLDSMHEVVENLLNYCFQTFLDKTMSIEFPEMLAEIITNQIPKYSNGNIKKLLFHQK
Excerpt: LanthaScreen TR-FRET competitive binding assay on GR (LanthaScreen TR-FRET GR Competitive Binding Assay)

[2] = molecular target: T2, GR (pCMV-GR11 in Hela cells) (Homo sapiens, UniProt P04150); experiment: NF-κB-Luc tethered transrepression reporter assay; format: cell-based; details: read-out: Cell transrepression / NF-κb (IC50 μM)
T2 construct: gene NR3C1; GR expressed from pCMV-GR11 (Addgene #89105), transiently transfected in HeLa cells
T2 sequence (P04150 1-777): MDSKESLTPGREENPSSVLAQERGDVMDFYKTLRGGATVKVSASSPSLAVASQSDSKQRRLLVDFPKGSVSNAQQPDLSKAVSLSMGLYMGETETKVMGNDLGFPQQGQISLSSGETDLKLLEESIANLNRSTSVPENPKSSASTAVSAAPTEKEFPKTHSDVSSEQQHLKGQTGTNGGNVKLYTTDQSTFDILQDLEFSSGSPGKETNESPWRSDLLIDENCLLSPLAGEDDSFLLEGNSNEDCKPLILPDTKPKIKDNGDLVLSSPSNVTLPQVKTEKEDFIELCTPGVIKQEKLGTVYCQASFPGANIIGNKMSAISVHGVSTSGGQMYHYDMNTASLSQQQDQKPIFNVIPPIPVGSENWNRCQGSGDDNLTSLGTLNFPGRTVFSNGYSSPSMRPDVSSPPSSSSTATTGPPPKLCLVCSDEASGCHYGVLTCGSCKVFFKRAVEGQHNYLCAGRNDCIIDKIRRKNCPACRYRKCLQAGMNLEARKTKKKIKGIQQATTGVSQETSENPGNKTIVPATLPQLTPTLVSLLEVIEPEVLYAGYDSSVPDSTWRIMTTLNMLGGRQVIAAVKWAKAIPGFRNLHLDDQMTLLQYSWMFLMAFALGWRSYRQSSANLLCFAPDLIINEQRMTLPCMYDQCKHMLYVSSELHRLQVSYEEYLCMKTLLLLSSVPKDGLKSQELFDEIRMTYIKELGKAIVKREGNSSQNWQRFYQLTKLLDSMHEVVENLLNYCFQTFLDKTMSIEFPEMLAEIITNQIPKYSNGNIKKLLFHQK
Excerpt: NF-κB-Luc tethered transrepression reporter assay on GR (pCMV-GR11 in Hela cells)

IC50 [1] [µM] | IC50 [2] [µM] | Compound
4.45 ± 0.36 | 12.2 ± 1.95 | COc1ccccc1CN1Cc2cc(NS(=O)(=O)c3ccc(F)cc3)ccc2OC(C)C1=O (stereo not drawn) [HP‐26]
2.53 ± 0.12 | 2.71 ± 0.72 | CC(=O)N1CCc2cc(S(=O)(=O)C(C)CC(=O)NCC(C)c3ccccc3)ccc21 (stereo not drawn) [HP‐24]
1.57 ± 0.54 | 2.76 ± 0.18 | Cc1ccc(S(=O)(=O)N2CCCc3cc(NS(=O)(=O)c4ccc(F)cc4C)ccc32)cc1 [HP‐67]
